Key:
[1] = system: breast cancer patients; conditions: recent clinical trials; cited from earlier work
[2] = system: D1-like (DRD1/5) subfamily of dopamine receptors; test: GPCR profiling, heterologous reporter assay for arrestin recruitment; type: cell-based
Description: (§1) To test the target prediction, in vitro profiling of GPCR activity using a hetereologous reporter assay for arrestin recruitment, a hallmark of GPCR activation was performed.

[3] = system: other GPCRs; test: as above; type: cell-based; conditions: under the evaluated conditions
Description: as §1

[4] = molecular target: T1, DRD2L (Homo sapiens, UniProt P14416)
[5] = molecular target: T1, DRD2L; test: antagonism of arrestin recruitment to DRD2L, Gaddam/Schild EC50 shift analysis; type: cell-based; set-up: expressed in transfected cells; conditions: dopamine completely reversed dose-dependent antagonism of up to 100 uM ONC201
Description: as §1

[6] = system: D2-like (DRD2/3/4) subfamily of dopamine receptors; conditions: arrestin recruitment
Description: as §1

[7] = system: short and long isoforms of DRD2; conditions: arrestin recruitment
Description: as §1

[8] = system: nuclear hormone receptors, the kinome, or other drug targets of FDA-approved cancer therapies
[9] = in vivo; cited from earlier work

T1 sequence (P14416 whole entry): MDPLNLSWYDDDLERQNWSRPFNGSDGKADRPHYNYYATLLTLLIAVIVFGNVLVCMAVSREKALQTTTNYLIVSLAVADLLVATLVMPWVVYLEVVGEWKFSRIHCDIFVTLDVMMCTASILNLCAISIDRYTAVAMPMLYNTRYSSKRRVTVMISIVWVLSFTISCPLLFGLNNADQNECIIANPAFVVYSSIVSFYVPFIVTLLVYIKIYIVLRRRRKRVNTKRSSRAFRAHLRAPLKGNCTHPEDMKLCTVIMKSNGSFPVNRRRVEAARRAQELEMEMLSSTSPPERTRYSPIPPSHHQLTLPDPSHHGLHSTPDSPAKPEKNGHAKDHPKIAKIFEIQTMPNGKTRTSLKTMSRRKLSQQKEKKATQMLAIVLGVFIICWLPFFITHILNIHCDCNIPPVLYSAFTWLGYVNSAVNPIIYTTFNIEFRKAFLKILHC

SMILES: C=C1C[C@@H]2CC[C@@]34C[C@H]5O[C@H]6[C@@H](O3)[C@H]3O[C@H](CC[C@@H]3O[C@H]6[C@H]5O4)CC(=O)C[C@@H]3[C@@H](OC)[C@@H](C[C@H](O)CN)O[C@H]3C[C@H]3O[C@@H](CC[C@@H]1O2)C[C@@H](C)C3=C [Eribulin]
- breast cancer patients showing any detectable response after treatment [1]: < 50%

SMILES: Cc1ccccc1CN1C(=O)C2=C(CCN(Cc3ccccc3)C2)N2CCN=C12 [ONC201]
- antagonism of D1-like dopamine receptors [2]: not D1-like
- antagonism of other GPCRs [3]: no observed antagonism
- cAMP modulation in response to compound [4]: Confirmatory results
- mode of antagonism of DRD2L [5]: direct, competitive antagonism
- antagonism of D2-like dopamine receptors [6]: selectively antagonizes
- antagonism of DRD2 short and long isoforms [7]: antagonized
- interactions with nuclear hormone receptors, kinome, other cancer drug targets [8]: no significant interactions

SMILES: CC(C)C[C@H](NC(=O)[C@H](Cc1ccccc1)NC(=O)c1cnccn1)B(O)O [bortezomib]
- associated adverse event [9]: peripheral neuropathy

SMILES: CC(=O)O[C@@]12CO[C@@H]1C[C@H](O)[C@@]1(C)C(=O)[C@H](O)C3=C(C)[C@@H](OC(=O)[C@H](O)[C@@H](NC(=O)OC(C)(C)C)c4ccccc4)C[C@@](O)([C@@H](OC(=O)c4ccccc4)[C@H]21)C3(C)C [docetaxel]
- associated adverse event [9]: neutropenia

SMILES: CN(CCOc1ccc(CC2SC(=O)NC2=O)cc1)c1ccccn1 (centres unmarked) [rosiglitazone]
- associated adverse event [9]: elevated risk of heart attack

Reference: US11955208B2, “Computational systems and methods for improving the accuracy of drug toxicity predictions” (Cornell University, priority 2016, dated 2024)
